Measurements published in US5324742A, “Aldose reductase inhibitor obtained from Crucibulum sp. RF-3817” (Shionogi & Co., Ltd., priority 1990, dated 1994).
“Also recorded” adds a separate entry of the source. Blank lines part the entries; values can stand above or below the compound they belong to.

Key:
Solubility in solvents = type: physicochemical; details: for State: solubility in organic solvents: organic solvents such as ethyl acetate, acetone, methanol, and ethanol
aldose reductase = target: T1, aldose reductase (Rattus norvegicus, UniProt P07943); assay: Aldose reductase-inhibiting activity (rat lens homogenate supernatant, D,L-glyceroaldehyde substrate, TPNH coenzyme); type: biochemical; details: 10 mM D,L-glyceroaldehyde, 0.1 mM TPNH, pH 6.2, 25° C., absorbance at 340 nm
T1 construct: A homogenate of rat lenses was used as an enzyme source; from tissue; host or cells: rat lens, supernatant of the homogenate after centrifugation
Procedure: Aldose Reductase-Inhibiting Activity
A homogenate of rat lenses was used as an enzyme source, glyceroaldehyde as a substrate, and TPNH as a coenzyme. To a mixture of 0.1M phosphate buffer (pH 6.2), 0.4M sodium sulfate, 0.1 mM TPNH (reduced form of triphosphopyridine nucleotide), and 10 mM D, L-glyceroaldehyde, a supernatant obtained from the homogenate of rat lenses by centrifugation was added as an enzyme source, so that the change in absorbance at 340 nm became 0.02 units per minute at 25° C. The change in absorbance at 340 nm for initial one minute was measured at 25° C., and the inhibiting activity was determined.

SMILES: CC(C(=O)O)C1Cc2c(cc3c(c2O)CN(C(CCC(=O)O)C(=O)O)C3=O)O1 (centres unmarked) [RD-01-A3]
- IC50 (aldose reductase): 11.9 µM
- State: solubility in organic solvents (Solubility in solvents): soluble

SMILES: CC(C(=O)O)C1Cc2c(cc3c(c2O)CN(CC(=O)O)C3=O)O1 (centres unmarked) [RD-01-A4]
- State: solubility in organic solvents (Solubility in solvents): soluble
- Solubility (Solubility in solvents; solvents: ethyl acetate, DMSO, methanol, ethanol, chloroform, ether, petroleum ether): soluble in ethyl acetate, DMSO, methanol, and ethanol; also recorded: slightly soluble in chloroform and ether; also recorded: insoluble in petroleum ether

SMILES: CC(C(=O)O)C1Cc2c(cc3c(c2O)CN(C(C)C(=O)O)C3=O)O1 (centres unmarked) [RD-01-A7]
- State: solubility in organic solvents (Solubility in solvents): soluble

Second part, the compound after the results:

- State: solubility in organic solvents (Solubility in solvents): soluble
SMILES: CC(C(=O)O)C1Cc2c(cc3c(c2O)C(=O)N(C(C)C(=O)O)C3=O)O1 (centres unmarked) [RD-01-C3]

- State: solubility in organic solvents (Solubility in solvents): soluble
SMILES: CC(C(=O)O)C1Cc2c(cc3c(c2O)C(=O)N(CC(=O)O)C3=O)O1 (centres unmarked) [RD-01-C2]

- State: solubility in organic solvents (Solubility in solvents): soluble
SMILES: CC(C(=O)O)C1Cc2c(cc3c(c2O)C(=O)NC3=O)O1 (centres unmarked) [RD-01-C1]
